Source: patent US11446338B2, “Food, cosmetic and pharmaceutical formulation with an immunomodulatory and protective anti-viral effect” (priority 2018, dated 2022)

Tested on: H1N1 influenza virus (California 2011)
Assay: Prevention of mortality in immunodeficient mice infected with H1N1 influenza virus
Assay type: in vivo
Details: cyclophosphamide-immunodeficient mice, oral 0.2 ml daily, 10 ED90/mouse intranasally

Structure (SMILES): CC(N)C12CC3CC(CC(C3)C1)C2 (centres unmarked) [Rimantadine]
- Percentage of surviving animals after experiment, %: 50%
- The number of surviving animals after the experiment, n = 10: 5
